In the NIST ThermoML archive (doi:10.1021/acs.jced.8b01128):
± gives the expanded uncertainty stated by the source.

How the values were obtained:
[1] = refractive index (Na D-line) (dimensionless); conditions: 298.15 K; 101.33 kPa; Liquid; Standard Abbe refractometry
[2] = 298.15 K; 101.33 kPa; Liquid; Pycnometric method

SMILES: O [water]
- refractive index [1]: 1.33299 ± 0.012

SMILES: OCCO [1,2-ethanediol]
- refractive index [1]: 1.43159 ± 0.012

SMILES: CC(O)CO (centres undefined) [1,2-propanediol]
- mass density [2]: 1032.7 ± 0.4 kg/m3
- refractive index [1]: 1.43262 ± 0.012
